Source: the NIST ThermoML archive (doi:10.1021/je300819g)
Numbers after ± are expanded uncertainties.

Conditions: Liquid, Ebulliometric method (Recirculating still)

CCNCCN [N-ethylethane-1,2-diamine]
Conditions	vapor or sublimation pressure [kPa]
358 K	20.8 ± 1.2
366.5 K	29.6 ± 1.2
374.1 K	39.5 ± 1.2
380.3 K	49.7 ± 1.3
390.2 K	69.5 ± 1.3
398.3 K	90.2 ± 1.3
401.9 K	101.2 ± 3.5
402.2 K	101.5 ± 1.3
